Columns and labels:
[1] = target: T1, GST-human KRas166 (G12V) GPPNHP (Homo sapiens, UniProt P01116, G12V); assay: KRas small-molecule screening by SPR (BIACORE T200); type: binding; settings: compound at final concentration of 100 uM; immobilised GST-KRAS166 (G12V) GPPNHP, GST reference channel
T1 construct: made in house; host or cells: E. coli C41(DE3)
Method: For SPR assays pGEX-KRAS(G12V) plasmid was transformed into E. coli C41(DE3). Bacterial cells were cultured at 37° C. to an OD600 of 0.6 and induced with IPTG (final 0.1 mM) at 18° C. overnight. The GST fusion proteins were extracted from bacteria pellets after cell disruption in 140 mM NaCl, 2.7 mM KCl, […], 1.8 mM KH2PO4, 1 mM EDTA, 2 mM MgCl2 pH 7.4 and purified by glutathione-sepharose column chromatography (GE Healthcare), eluting with 50 mM Tris-HCl pH8.0, 10 mM reduced glutathione, 1 mM DTT, 2 mM MgC2. The eluted proteins were dialysed against 50 mM Tris-HCl pH8.0, 1 mM DTT, 2 mM MgCl2 and concentrated to 10 mg/ml using a Biomax-30 […]-15 centrifugal filter device (Millipore). Purified KRAS protein was loaded with GPPNHP as described elsewhere (Pacold et al., 2000). Loaded protein was then purified by gel filtration on a HiLoad Superdex-75 HR column (GE Healthcare) in 1×PBS pH7.4, 5 mM MgCl2 and concentrated for storage.
To a previously immobilized CM5 chip (GE Healthcare BR-1005-30) with anti GST antibody via amine coupling method, GST in channel 1 and GST-human KRas166 (G12V) GPPNHP in channel 2 were immobilised. GST was immobilised between 2,000 and 5,000 Response units. KRAS166 (G12V) was immobilized between 10,000 to 15,000 Response Units.
In a 96 well plate, compounds were diluted in […], 5 mM MgCl2 and 5% DMSO Buffer to a final concentration of 100 uM. DCAI was used as positive control. Experiment also included a solvent correction curve for 5% DMSO. Screening and evaluation of the protein immobilization and the compounds screening was done accordingly to the BIACORE T200 control and evaluation software.
Protein immobilisation: 10,000 RU; average fragment 300 Da in size. Rmax=(MWA/MWL)×RL×SM MWA is the molecular weight of the analyte in Da MWL is the molecular weight of the ligand in Da RL is the immobilization level in RU SM is the molar stoichiometry (assume 1:1) Rmax=300/47,500×10,000×1 Rmax=63 RU. Cell Viability Assay protocols

[2] = test system: H358 cells (ATCC CRL-5807); assay: Cell viability assay (CellTiter-Glo), H358 cells; type: cell-based; settings: Homo sapiens, NCI-H358, 48 h incubation, first value of the cell, read-out: Cell Viability (μM) H358 (concentration that decreases cell viability by 50%)
Method: (§1) Cells (A549 ATCC CCL-185) are cultured in Dulbecco's Modified Eagle's Medium plus 10% foetal calf serum and 2 mM L-glutamine at 37° C., 5% CO2. Cells are plated onto white clear bottom 96-well plates (5000 cells/well in 200 μl media) and left to adhere overnight at 37° C., 5% CO2. Next day, test compound (1 μl at 200× concentration in 100% DMSO) is added to give final test compound concentration 1× in 0.5% DMSO. After 48 h of incubation at 37° C., 5% CO2, 20 μl CellTiter-Glo reagent (Promega G7572) is added into each well. Plates are incubated at room temperature with shaking for 30 min and then luminescence is read using a PheraStar plate reader. The concentration of compounds that decrease cell viability by 50% is calculated from dose response curves generated using Dotmatics data analysis software.
In the H358 cell assay, cells (ATCC CRL-5807) are cultured in RPM-1640 medium plus 10% foetal calf serum and 2 mM L-glutamine at 37° C., 5% CO2.

[3] = test system: DLD1 cells (ATCC CCL-221); assay: Cell viability assay (CellTiter-Glo), DLD1 cells; type: cell-based; settings: Homo sapiens, DLD-1 cells, 48 h incubation, second value of the cell, read-out: Cell Viability (μM) DLD-1 (concentration that decreases cell viability by 50%)
Method: as §1
In the DLD1 cell assay, cells (ATCC CCL-221) are cultured in RPMI-1640 medium plus 10% foetal calf serum and 2 mM L-glutamine at 37° C., 5% CO2.

## O=C(c1ncco1)N(C[C@@H]1COc2ccc(OCc3ccccc3)cc2O1)C1CCN(Cc2ccccc2)CC1 [Example 43, Oxazole-2-carboxylic acid ((R)-7-benzyloxy-2,3-dihydro-benzo[1,4]dioxin-2-ylmethyl)-(1-benzyl-piperidin-4-yl)-amide]
[1]
  SPR Response Units: 35 Response Units
[2]
  IC50: 20.8 µM
[3]
  IC50: 18.5 µM

## CN1CCC(C(=O)NC[C@@H]2COc3ccc(OCc4ccc(Cl)cc4)cc3O2)CC1 [Example 18, 1-Methyl-piperidine-4-carboxylic acid [(R)-7-(4-chloro-benzyloxy)-2,3-dihydro-benzo[1,4]dioxin-2-ylmethyl]-amide]
[1]
  SPR Response Units: 61 Response Units
[2]
  IC50: 10 µM
[3]
  IC50: 5.4 µM

## CN1CCC(C(=O)NC[C@@H]2COc3ccc(OCc4cccc(Cl)c4)cc3O2)CC1 [Example 30, 1-Methyl-piperidine-4-carboxylic acid [(R)-7-(3-chloro-benzyloxy)-2,3-dihydro-benzo[1,4]dioxin-2-ylmethyl]-amide]
[1]
  SPR Response Units: 64 Response Units
[2]
  IC50: 16.2 µM
[3]
  IC50: 3.9 µM

## O=C(NC[C@@H]1COc2ccc(OCc3ccccc3)cc2O1)c1ncco1 [Example 3, Oxazole-2-carboxylic acid ((R)-7-benzyloxy-2,3-dihydro-benzo[1,4]dioxin-2-ylmethyl)-amide]
[1]
  SPR Response Units: 12 Response Units
[2]
  IC50: > 100 µM
[3]
  IC50: 20 µM

## Cc1ccc(COc2ccc3c(c2)O[C@H](CNC(=O)C2CCN(C)CC2)CO3)cc1 [Example 29, 1-Methyl-piperidine-4-carboxylic acid [(R)-7-(4-methyl-benzyloxy)-2,3-dihydro-benzo[1,4]dioxin-2-ylmethyl]-amide]
[1]
  SPR Response Units: 37 Response Units
[2]
  IC50: 12.5 µM
[3]
  IC50: 6.8 µM

## CN1CCN(c2cccc(CNC[C@@H]3COc4ccc(OCc5ccccc5)cc4O3)c2)CC1 [Example 53, ((R)-7-Benzyloxy-2,3-dihydro-benzo[1,4]dioxin-2-ylmethyl)-[3-(4-methyl-piperazin-1-yl)-benzyl]-amine]
[2]
  IC50: 8 µM
[3]
  IC50: 5 µM

## CN1CCC2(CC1)NC(=O)N(C[C@@H]1COc3ccc(OCc4ccccc4)cc3O1)C2=O [Example 77, 3-((R)-7-Benzyloxy-2,3-dihydro-benzo[1,4]dioxin-2-ylmethyl)-8-methyl-1,3,8-triaza-spiro[4.5]decane-2,4-dione]
[1]
  SPR Response Units: 49 Response Units
[2]
  IC50: 59 µM
[3]
  IC50: 4 µM

## O=C(c1ncco1)N(CC1CCN(Cc2ccccc2)CC1)C[C@@H]1COc2ccc(OCc3ccccc3)cc2O1 [Example 42, Oxazole-2-carboxylic acid ((R)-7-benzyloxy-2,3-dihydro-benzo[1,4]dioxin-2-ylmethyl)-(1-benzyl-piperidin-4-ylmethyl)-amide]
[1]
  SPR Response Units: 93 Response Units
[2]
  IC50: 29 µM
[3]
  IC50: 3 µM

## O=c1ccccn1CCN1CCN(C[C@@H]2COc3ccc(OCc4ccccc4)cc3O2)CC1 [Example 52, 1-{2-[4-((R)-7-Benzyloxy-2,3-dihydro-benzo[1,4]dioxin-2-ylmethyl)-piperazin-1-yl]-ethyl}-1H-pyridin-2-one]
[1]
  SPR Response Units: 70 Response Units
[2]
  IC50: > 100 µM
[3]
  IC50: 15 µM

## O=C(NCc1ccc(CN2CCNCC2)cc1)C1COc2ccc(OCc3ccccc3)cc2O1 (stereo not shown) [Example 74, 7-Benzyloxy-2,3-dihydro-benzo[1,4]dioxine-2-carboxylic acid 4-piperazin-1-ylmethyl-benzylamide]
[1]
  SPR Response Units: 115 Response Units
[2]
  IC50: 21.3 µM
[3]
  IC50: 16.7 µM

## Cc1ccccc1COc1ccc2c(c1)O[C@H](CNC(=O)C1CCN(C)CC1)CO2 [Example 32, 1-Methyl-piperidine-4-carboxylic acid [(R)-7-(2-methyl-benzyloxy)-2,3-dihydro-benzo[1,4]dioxin-2-ylmethyl]-amide]
[1]
  SPR Response Units: 37 Response Units
[2]
  IC50: 26.2 µM
[3]
  IC50: 15.9 µM

## CN1CCN(Cc2cccc(C(=O)NC[C@@H]3COc4ccc(OCc5ccccc5)cc4O3)c2)CC1 [Example 7, N-((R)-7-Benzyloxy-2,3-dihydro-benzo[1,4]dioxin-2-ylmethyl)-3-(4-methyl-piperazin-1-ylmethyl)-benzamide]
[2]
  IC50: 19.2 µM
[3]
  IC50: 10.5 µM

## CN1CCC(C(=O)NC[C@@H]2COc3ccc(OCc4ccc(F)c(F)c4)cc3O2)CC1 [Example 27, 1-Methyl-piperidine-4-carboxylic acid [(R)-7-(3,4-difluoro-benzyloxy)-2,3-dihydro-benzo[1,4]dioxin-2-ylmethyl]-amide]
[1]
  SPR Response Units: 44 Response Units
[2]
  IC50: 33.2 µM
[3]
  IC50: 5.6 µM

## CN(C)CC(=O)N[C@H]1CC[C@@H](NC[C@@H]2COc3ccc(OCc4ccccc4)cc3O2)CC1 [Example 50, N-{4-[((R)-7-Benzyloxy-2,3-dihydro-benzo[1,4]dioxin-2-ylmethyl)-amino]-cyclohexyl}-2-dimethylamino-acetamide]
[1]
  SPR Response Units: 70 Response Units
[2]
  IC50: 28 µM
[3]
  IC50: 5 µM

## O=C1CN(C2CCNCC2)C(=O)N1C[C@@H]1COc2ccc(OCc3ccccc3)cc2O1 [Example 79, 3-((R)-7-Benzyloxy-2,3-dihydro-benzo[1,4]dioxin-2-ylmethyl)-1-piperidin-4-yl-imidazolidine-2,4-dione]
[1]
  SPR Response Units: 72 Response Units
[2]
  IC50: 50 µM
[3]
  IC50: 9 µM

## c1ccc(COc2ccc3c(c2)O[C@H](CNCC2CCOCC2)CO3)cc1 [Example 33, ((R)-7-Benzyloxy-2,3-dihydro-benzo[1,4]dioxin-2-ylmethyl)-(tetrahydro-pyran-4-ylmethyl)-amine]
[2]
  IC50: > 100 µM
[3]
  IC50: 18 µM

## c1ccc(COc2ccc3c(c2)O[C@H](CNCC2CCCNC2)CO3)cc1 (stereo partly drawn) [Example 58, ((R)-7-Benzyloxy-2,3-dihydro-benzo[1,4]dioxin-2-ylmethyl)-piperidin-3-ylmethyl-amine]
[2]
  IC50: 14.7 µM
[3]
  IC50: 13.8 µM

## O=C(NC[C@@H]1COc2ccc(OCc3cccnc3)cc2O1)c1ncco1 [Example 19, Oxazole-2-carboxylic acid [(R)-7-(pyridin-3-ylmethoxy)-2,3-dihydro-benzo[1,4]dioxin-2-ylmethyl]-amide]
[1]
  SPR Response Units: 40 Response Units

## O=C(NC[C@@H]1COc2ccc(OCc3ccccc3)cc2O1)C1CCNCC1 [Example 17, Piperidine-4-carboxylic acid ((R)-7-benzyloxy-2,3-dihydro-benzo[1,4]dioxin-2-ylmethyl)-amide]
[1]
  SPR Response Units: 22 Response Units

## CN1CCC(CC(=O)NC[C@@H]2COc3ccc(OCc4ccccc4)cc3O2)CC1 [Example 8, N-((R)-7-Benzyloxy-2,3-dihydro-benzo[1,4]dioxin-2-ylmethyl)-2-(1-methyl-piperidin-4-yl)-acetamide]
[1]
  SPR Response Units: 24 Response Units

## NC(=O)CN1CCC(C(=O)NC[C@@H]2COc3ccc(OCc4ccccc4)cc3O2)CC1 [Example 14, 1-Carbamoylmethyl-piperidine-4-carboxylic acid ((R)-7-benzyloxy-2,3-dihydro-benzo[1,4]dioxin-2-ylmethyl)-amide]
[1]
  SPR Response Units: 24 Response Units

## CN(C)CCC(=O)NC[C@@H]1COc2ccc(OCc3ccccc3)cc2O1 [Example 6, N-((R)-7-Benzyloxy-2,3-dihydro-benzo[1,4]dioxin-2-ylmethyl)-3-dimethylamino-propionamide]
[1]
  SPR Response Units: 21 Response Units

Reference: patent US11724999B2, “Inhibitors of RAS-effector protein interactions” (Oxford University Innovation Limited, priority 2018, dated 2023)
